Patent US20230089368A1, “POLYAROMATIC UREA DERIVATIVES AND THEIR USE IN THE TREATMENT OF MUSCLE DISEASES” (ANAGENESIS BIOTECHNOLOGIES S.A.S., priority 2019, published 2023)

Assays:
[1] = test system: muscle progenitors (hMP) from DMD hiPSC or WT hiPSC; experiment: Myotube assay: myogenic activity (total myotube area per well); assay type: cell-based, human; conditions: for Emax: Homo sapiens, 72 h, myotube assay, compounds incubated 3 days, read-out: MA (normalized Myotube Area, efficacy)
Summary of the method: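 DMD or WT hiPSC-derived muscle progenitors plated on collagen I in K5 medium with 5 μM Y-27632, treated with compound (1.5 nM–30 μM) for 3 days at 37° C. Cells were fixed, stained for alpha-actinin and imaged for total myotube area per well. EC50 and normalized myotube area (MA) taken from duplicate-averaged data.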

[2] = test system: satellite-like cells (Pax7-positive cells) in hMP; experiment: Myotube assay: Pax7-positive (satellite-like) cell quantification; assay type: cell-based, human; set-up: key to Pax7% (pool of Pax7-positive cells) / Pax7: −: Depletes the pool of cells, while positively affects the myotubes; +: Maintains or increases the pool of cells, with at least 1 of the highest concentration known to be cytotoxic; ++: Maintains or increases the pool of cells, without any toxicity; conditions: for Pax7% (pool of Pax7-positive cells): myotube assay, compounds incubated 3 days
Summary of the method: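 DMD hiPSC-derived muscle progenitors (hMP) proliferated 4 days, then plated on collagen I in K5 medium with 5 μM Y-27632. Compound added at 1.5 nM–30 μM for 3 days at 37° C, then cells fixed and immunostained. Pax7-positive cells counted as percentage of total nuclei, duplicates averaged.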

Row | Compound | Emax [1] [%] | Pax7% (pool of Pax7-positive cells) [2] | total myotube surface/well (myogenic activity) ([1]; DMD hMP, 10 concentrations 1.5 nM to 30 μM, 3 days, FIG. 2) | percentage of Pax7-positive cells ([2]; DMD hMP, 10 concentrations 1.5 nM to 30 μM, 3 days, FIG. 3)
1 | CCOC(=O)Nc1cc(Oc2ccc(NC(=O)Nc3cc(C(C)(C)C)no3)c3ccccc23)ccn1 [(db), Ethyl (4-((4-(3-(3-(tert-butyl)isoxazol-5-yl)ureido)naphthalen-1-yl)oxy)pyridin-2-yl)carbamate] | ≥ 75 | + |  | 
2 | CCOC(=O)Nc1cc(Oc2ccc(NC(=O)Nc3ncc(C(C)(C)C)s3)c3ccccc23)ccn1 [(dc), Ethyl (4-((4-(3-(5-(tert-butyl)thiazol-2-yl)ureido)naphthalen-1-yl)oxy)pyridin-2-yl)carbamate] | ≥ 75 | + |  | 
3 | CSc1cc(Oc2ccnc3[nH]c(=O)cnc23)ccc1NC(=O)Nc1cc(C(C)(C)C)nn1-c1ccc(CN2CCOCC2)cc1 [(dd), 1-(3-(tert-butyl)-1-(4-(morpholinomethyl)phenyl)-1H-pyrazol-5-yl)-3-(2-(methylthio)-4-((3-oxo-3,4-dihydropyrido[2,3-b]pyrazin-8-yl)oxy)phenyl)urea] | ≥ 75 | + |  | 
4 | CCOC(=O)Nc1cc(Oc2ccc(NC(=O)Nc3cc(C(C)(C)C)no3)c(SC)c2)ccn1 [(de), Ethyl (4-(4-(3-(3-(tert-butyl)isoxazol-5-yl)ureido)-3-(methylthio)phenoxy)pyridin-2-yl)carbamate] | ≥ 75 | + |  | 
5 | CCOC(=O)Nc1cc(Oc2ccc(NC(=O)Nc3ncc(C(C)(C)C)s3)c(SC)c2)ccn1 [(df), Ethyl (4-(4-(3-(5-(tert-butyl)thiazol-2-yl)ureido)-3-(methylthio)phenoxy)pyridin-2-yl)carbamate] | ≥ 75 | + |  | 
6 | CC(C)(C)c1cc(NC(=O)Nc2ccc(Oc3ccnc4c3CCC(=O)N4)c3ccccc23)on1 [(dg), 1-(3-(tert-butyl)isoxazol-5-yl)-3-(4-((7-oxo-5,6,7,8-tetrahydro-1,8-naphthyridin-4-yl)oxy)naphthalen-1-yl)urea] | ≥ 75 | + |  | 
7 | CSc1cc(Oc2ccnc3[nH]c(=O)cnc23)ccc1NC(=O)Nc1cc(C(C)(C)C)on1 [(dh), 1-(5-(tert-butyl)isoxazol-3-yl)-3-(2-(methylthio)-4-((3-oxo-3,4-dihydropyrido[2,3-b]pyrazin-8-yl)oxy)phenyl)urea] | ≥ 75 | + |  | 
8 | CCOC(=O)Nc1cc(Oc2ccc(NC(=O)Nc3cc(C(C)(C)C)on3)c(SC)c2)ccn1 [(di), Ethyl (4-(4-(3-(5-(tert-butyl)isoxazol-3-yl)ureido)-3-(methylthio)phenoxy)pyridin-2-yl)carbamate] | ≥ 75 | ++ |  | 
9 | CC(=O)Nc1cc(Oc2ccc(NC(=O)Nc3cc(C(C)(C)C)nn3-c3ccccc3)c3ccccc23)ccn1 [(dj), N-(4-((4-(3-(3-(tert-butyl)-1-phenyl-1H-pyrazol-5-yl)ureido)naphthalen-1-yl)oxy)pyridin-2-yl)acetamide] | ≥ 75 | + |  | 
10 | CSc1cc(Oc2ccncc2)ccc1NC(=O)Nc1cc(C(C)(C)C)nn1-c1ccccc1 [(dk), 1-(3-(tert-butyl)-1-phenyl-1H-pyrazol-5-yl)-3-(2-(methylthio)-4-(pyridin-4-yloxy)phenyl)urea] | 25 to 50 | ++ |  | 
11 | CSc1cc(Oc2ccnc(NS(C)(=O)=O)c2)ccc1NC(=O)Nc1cc(C(C)(C)C)no1 [(dl), N-(4-(4-(3-(3-(tert-butyl)isoxazol-5-yl)ureido)-3-(methylthio)phenoxy)pyridin-2-yl)methanesulfonamide] | ≥ 75 | ++ |  | 
12 | CSc1cc(Oc2ccnc3[nH]c(=O)[nH]c23)ccc1NC(=O)Nc1cc(C(C)(C)C)nn1-c1ccccc1 [(dm), 1-(3-(tert-butyl)-1-phenyl-1H-pyrazol-5-yl)-3-(2-(methylthio)-4-((2-oxo-2,3-dihydro-1H-imidazo[4,5-b]pyridin-7-yl)oxy)phenyl)urea] | ≥ 75 | − |  | 
13 | CSc1cc(NC(=O)Nc2cc(C(C)(C)C)nn2-c2ccccc2)ccc1Oc1ccnc2[nH]c(=O)cnc12 [(dn), 1-(3-(tert-butyl)-1-phenyl-1H-pyrazol-5-yl)-3-(3-(methylthio)-4-((3-oxo-3,4-dihydropyrido[2,3-b]pyrazin-8-yl)oxy)phenyl)urea] | ≥ 75 | + |  | 
14 | CSc1cc(Oc2ccnc3[nH]c(=O)ccc23)ccc1NC(=O)Nc1cc(C(C)(C)C)nn1-c1ccccc1 [(do), 1-(3-(tert-butyl)-1-phenyl-1H-pyrazol-5-yl)-3-(2-(methylthio)-4-((7-oxo-7,8-dihydro-1,8-naphthyridin-4-yl)oxy)phenyl)urea] | ≥ 75 | + |  | 
15 | CSc1cc(Oc2ccnc3[nH]c(=O)cnc23)ccc1NC(=O)Nc1cc(C(C)(C)C)nn1-c1ccc(CN(C)C)cc1 [(dp), 1-(3-(tert-butyl)-1-(4-((dimethylamino)methyl)phenyl)-1H-pyrazol-5-yl)-3-(2-(methylthio)-4-((3-oxo-3,4-dihydropyrido[2,3-b]pyrazin-8-yl)oxy)phenyl)urea] | ≥ 75 | + |  | 
16 | CSc1cc(Oc2ccnc(NC(=O)CO)c2)ccc1NC(=O)Nc1cc(C(C)(C)C)nn1-c1ccccc1 [(dq), N-(4-(4-(3-(3-(tert-butyl)-1-phenyl-1H-pyrazol-5-yl)ureido)-3-(methylthio)phenoxy)pyridin-2-yl)-2-hydroxyacetamide] | ≥ 75 | + |  | 
17 | O=C(Nc1ccc(Oc2ccnc3[nH]c(=O)cnc23)cc1F)Nc1cc(C2CC2)nn1-c1ccccc1 [(e), 1-(3-cyclopropyl-1-phenyl-1H-pyrazol-5-yl)-3-(2-fluoro-4-((3-oxo-3,4-dihydropyrido[2,3-b]pyrazin-8-yl)oxy)phenyl)urea] | 25 to 50 | ++ |  | 
18 | CC1(c2cc(NC(=O)Nc3ccc(Oc4ccnc5[nH]c(=O)cnc45)cc3F)n(-c3ccccc3)n2)COC1 [(f), 1-(2-fluoro-4-((3-oxo-3,4-dihydropyrido[2,3-b]pyrazin-8-yl)oxy)phenyl)-3-(3-(3-methyloxetan-3-yl)-1-phenyl-1H-pyrazol-5-yl)urea] | 50 to 75 | ++ |  | 
19 | CC(C)Cc1cc(NC(=O)Nc2ccc(Oc3ccnc4[nH]c(=O)cnc34)cc2F)n(-c2ccccc2)n1 [(g), 1-(2-fluoro-4-((3-oxo-3,4-dihydropyrido[2,3-b]pyrazin-8-yl)oxy)phenyl)-3-(3-isobutyl-1-phenyl-1H-pyrazol-5-yl)urea] | ≥ 75 | + |  | 
20 | CC(C)(C)c1cc(NC(=O)Nc2ccc(Oc3ccnc4[nH]c(=O)cnc34)cc2F)[nH]n1 [(h), 1-(3-(tert-butyl)-1H-pyrazol-5-yl)-3-(2-fluoro-4-((3-oxo-3,4-dihydropyrido[2,3-b]pyrazin-8-yl)oxy)phenyl)urea] | 25 to 50 | + |  | 
21 | CC(C)n1nc(C(C)(C)C)cc1NC(=O)Nc1ccc(Oc2ccnc3[nH]c(=O)cnc23)cc1F [(i), 1-(3-(tert-butyl)-1-isopropyl-1H-pyrazol-5-yl)-3-(2-fluoro-4-((3-oxo-3,4-dihydropyrido[2,3-b]pyrazin-8-yl)oxy)phenyl)urea] | 50 to 75 | + | dose-dependent increase | dose-dependent increase
22 | CC(C)(C)c1cc(NC(=O)Nc2ccc(Oc3ccnc4[nH]c(=O)cnc34)cc2F)n(Cc2ccccc2)n1 [(j), 1-(1-benzyl-3-(tert-butyl)-1H-pyrazol-5-yl)-3-(2-fluoro-4-((3-oxo-3,4-dihydropyrido[2,3-b]pyrazin-8-yl)oxy)phenyl)urea] | 50 to 75 | ++ |  | 
23 | CC(C)(C)c1cc(NC(=O)Nc2ccc(Oc3ccnc4[nH]c(=O)cnc34)cc2F)n(CCN2CCOCC2)n1 [(k), 1-(3-(tert-butyl)-1-(2-morpholinoethyl)-1H-pyrazol-5-yl)-3-(2-fluoro-4-((3-oxo-3,4-dihydropyrido[2,3-b]pyrazin-8-yl)oxy)phenyl)urea] | 50 to 75 | ++ |  | 
24 | CC(C)(C)c1cc(NC(=O)Nc2ccc(Oc3ccnc4[nH]c(=O)cnc34)cc2F)n(-c2cccnc2)n1 [(l), 1-(3-(tert-butyl)-1-(pyridin-3-yl)-1H-pyrazol-5-yl)-3-(2-fluoro-4-((3-oxo-3,4-dihydropyrido[2,3-b]pyrazin-8-yl)oxy)phenyl)urea] | 50 to 75 | + |  | 
